Assay results as given in patent publication US20250381110A1, “SKIN CARE COMPOSITION AND METHOD OF USING THE SAME” (THE PROCTER & GAMBLE COMPANY, priority 2024, published 2025).

Columns and labels:
p62-dependent mitophagy [1] = test: Luciferase-p62 assay (Fluc-p62 clearance) in mouse embryonic fibroblasts; assay type: cell-based; conditions: for Mean Luminescence: Luciferase-p62 assay, mouse embryonic fibroblasts (MEFs), compounds at 10 μM; for % Activity over baseline: percentage of Luciferase-p62 clearance relative to baseline (mean luminescence in the absence of doxycycline induction); for % Activity over baseline / % Activity relative to Rapamycin: MEFs, 10 μM; for % Activity relative to Rapamycin: percentage of activity relative to rapamycin tested in the same experiment at the same concentration
How it was run: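 MEFs with doxycycline-inducible Fluc-p62; after induction, doxycycline removed and cells treated 48 h with compounds at 10 μM. Fluc-p62 clearance, taken as mitophagy, read by ONE-Glo+Tox luciferase with viability. Vehicle (DMSO) as negative control; activity also expressed relative to rapamycin.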

p62-dependent mitophagy [2] = test: Luciferase-p62 clearance assay, stated for HDFs; assay type: cell-based, human; conditions: 5 μM; HDFs
Experimental: (§1) FIGS. 15A-15C show hydroxycinnamic acids (HCAs) tested in mitophagy assays in primary HDFs. […] 80,000 mixed aged Fibroblasts expressing the Su9-Halo-GFP reporter were treated for 48 h with the indicated HCAs. A change in the reporter excitation occurs because the GFP tag is quenched in the lysosome environment, indicating mitophagy.
To identify p62-dependent materials which increase mitophagy, a Luciferase-p62 Assay was established. This method provides an approach to measure the ability of a material to modulate p62-dependent mitophagy by using an inducible firefly luciferase-p62 (Fluc-p62) reporter cell system. In this assay, p62 levels are driven by doxycycline treatment. After levels increased, expression of Fluc-p62 is turned off by removal of doxycycline, materials are then added and assessed for how they affect clearance of Fluc-p62 protein, which is proportionate to cellular mitophagy rates (Kelly et al.). […]
Test materials including bioactive materials were screened in mouse embryonic fibroblasts (MEFs, Harada et al.) expressing the TET-inducible p62-fluc construct as previously described (Brown et al.). […] Subsequently, cells were treated with test materials for 48 hours in normal growth medium and analysed using ONE-Glo™+Tox Luciferase Reporter and Cell Viability Assay (Promega) by following the manufacturer's protocol.

[3] = test system: primary human dermal fibroblasts (HDFs); test: Mitophagy assay, Su9-Halo-GFP reporter, fluorescence microscopy; assay type: cell-based
Experimental: as §1
Primary human dermal fibroblasts (HDFs) were cultured in DMEM supplemented with 10 percent FBS, 100 units per milliliter penicillin/streptomycin, and 2 millimolar L-glutamine in a humidified atmosphere containing 5 percent carbon dioxide at 37 degrees Celsius. Stable expression of mt-mKeima was achieved through retroviral transduction (Kelly et al.). Cells stably expressing mt-mKeima were seeded in a 35 mm glass bottom dish (MatTek). The live-cell mt-Keima signal was obtained via widefield microscopy using the DMi8 and 2 filtersets to obtain the acidic (561 nm excitation, “red”) and pH-neutral (480 nm, “green”) mKeima signals. Using FIJI/ImageJ, a macro was applied to the mt-mKeima signal to extract mitolysosomes. […] Mitophagy events were determined as the number of puncta per cell. […] Fluorescence images were obtained using an LSM700 confocal microscope (Zeiss). The number of mitolysosomes (GFP-Halo+puncta) per cell was quantified using proprietary plugin in Fiji/ImageJ. […]

| Compound | Mean Luminescence (p62-dependent mitophagy [1]) | % Activity over baseline (p62-dependent mitophagy [1]) | % Activity relative to Rapamycin (p62-dependent mitophagy [1]) | p62-dependent mitophagy vs. untreated control cells (p62-dependent mitophagy [2]) | mitophagy events by fluorescence microscopy ([3]; 8 μM, 48 h, mixed aged fibroblasts, Su9-Halo-GFP reporter) | increase of basal mitophagy levels, dose-response comparison with ferulic acid ([3]; 0.1-8 μM, HDFs) |
| --- | --- | --- | --- | --- | --- | --- |
| CN1[C@@H]2CC[C@H]1CC(=O)C2 [Tropinone] | 896.55 | 44.59% | 80.34% |  |  |  |
| O=c1cc[nH]c(=O)[nH]1 [Uracil] | 927.30 | 42.69% | 76.92% |  |  |  |
| O=c1ccn([C@@H]2O[C@H](CO)[C@@H](O)[C@H]2O)c(=O)[nH]1 [Uridine] | 955.62 | 40.94% | 73.77% |  |  |  |
| O=c1oc2cc(O)ccc2c2ccc(O)cc12 [Urolithin A] | 884.12 | 45.36% | 81.73% |  |  |  |
| C[C@H]1[C@H](C)CC[C@]2(C(=O)O)CC[C@]3(C)C(=CC[C@@H]4[C@@]5(C)CC[C@H](O)C(C)(C)[C@@H]5CC[C@]43C)[C@H]12 [Ursolic acid] | 905.10 | 44.06% | 79.39% |  |  |  |
| COc1ccc(C=O)cc1OC [Veratraldehyde] | 887.33 | 45.16% | 81.37% |  |  |  |
| COc1ccc(C(=O)O)cc1OC [Veratric acid] | 937.88 | 42.04% | 75.74% |  |  |  |
| CC[C@]12CCCN3CCc4c(n(c5ccccc45)[C@@](O)(C(=O)OC)C1)[C@@H]32 [Vincamine] | 716.24 | 55.74% | 100.42% |  |  |  |
| CCC12C=CCN3CC[C@@]4(c5ccc(OC)cc5N(C)[C@H]4[C@@](O)(C(=O)OC)[C@@H]1OC(C)=O)[C@@H]32 (stereo partly drawn) [Vindoline] | 930.98 | 42.46% | 76.51% |  |  |  |
| O=C1O[C@H]([C@@H](O)CO)C(O)=C1O [Vitamin C] | 962.07 | 40.54% | 73.05% |  |  |  |
| C=C1CC[C@H](O)C/C1=C/C=C1\CCC[C@]2(C)[C@@H]([C@H](C)CCCC(C)C)CC[C@@H]12 [Vitamin D3] | 488.16 | 69.83% | 125.82% |  |  |  |
| COc1cc(O)c(CC=C(C)C)c(O)c1C(=O)/C=C/c1ccc(O)cc1 [Xanthohumol] | 485.82 | 69.98% | 126.08% |  |  |  |
| CCC/C=C1\OC(=O)C2=C1CCC=C2 [Z-Ligustilide] | 895.67 | 44.65% | 80.44% |  |  |  |
| CC1=C(/C=C/C(C)=C/C=C/C(C)=C/C=O)C(C)(C)CCC1 [all-trans Retinal] | 967.12 | 40.23% | 72.49% |  |  |  |
| O=C(O)c1cccc(O)c1 [m-Hydroxybenzoic acid] | 745.89 | 53.90% | 97.12% |  |  |  |
| O[C@H]1[C@H](O)[C@@H](O)[C@H](O)[C@@H](O)[C@H]1O [myo-Inositol] | 670.16 | 58.58% | 105.55% |  |  |  |
| O=C(O)/C=C/c1ccc(O)cc1 [p-coumaric acid] |  |  |  | significantly increases p62-dependent mitophagy | increases mitophagy events | outperforms an O-methylated form (ferulic acid) |
| C/C(=C\CNc1ncnc2nc[nH]c12)CO [trans-Zeatin] | 994.70 | 38.53% | 69.42% |  |  |  |
| O=c1cc(-c2ccccc2)oc2c1ccc1ccccc12 [α-Naphthoflavone] | 781.48 | 51.70% | 93.16% |  |  |  |
| Bacitracin Zinc | 919.94 | 43.15% | 77.74% |  |  |  |
| Bleomycin Sulfate | 615.38 | 61.97% | 111.65% |  |  |  |
| Picrotoxin | 868.69 | 46.31% | 83.45% |  |  |  |
| Schisantherin A | 875.42 | 45.90% | 82.70% |  |  |  |
| Tubeimoside I | 257.38 | 84.09% | 151.52% |  |  |  |
